# Target: T1, MATE45^long (Arabidopsis thaliana, UniProt A0A1L2EGK5)
# T1 construct: gene At1g71870; long splice form ORF cloned from wild-type seedling cDNA, in pDEST42, expressed in Escherichia coli acrB
# T1 sequence (A0A1L2EGK5 1-510): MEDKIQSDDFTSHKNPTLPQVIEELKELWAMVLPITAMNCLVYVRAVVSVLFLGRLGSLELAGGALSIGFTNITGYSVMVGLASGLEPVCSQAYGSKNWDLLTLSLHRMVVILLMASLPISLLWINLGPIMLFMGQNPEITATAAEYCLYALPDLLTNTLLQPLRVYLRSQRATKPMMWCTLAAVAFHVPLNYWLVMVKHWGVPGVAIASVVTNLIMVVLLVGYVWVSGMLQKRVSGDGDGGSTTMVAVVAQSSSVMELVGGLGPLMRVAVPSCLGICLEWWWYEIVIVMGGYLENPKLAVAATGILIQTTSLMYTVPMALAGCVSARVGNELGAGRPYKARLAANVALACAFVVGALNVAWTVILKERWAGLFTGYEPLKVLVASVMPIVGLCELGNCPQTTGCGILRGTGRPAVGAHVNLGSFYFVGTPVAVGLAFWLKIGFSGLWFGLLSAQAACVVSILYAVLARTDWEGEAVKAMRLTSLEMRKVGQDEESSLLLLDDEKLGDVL
# Experiment: uptake into E. coli acrB cells, LC-MS MRM
# Type: cell-based
# Conditions: 0.5 uM (+)-ABA, 30 min; Venus fluorescent protein as control
smiles,measurement,value
"CC1=CC(=O)CC(C)(C)C1(O)/C=C/C(C)=C\C(=O)O (stereo in doubt) [(+)-ABA, (+)‐ABA]",rate of (+)-ABA uptake,significantly higher rates of ABA uptake into E. coli cells expressing MATE45^long compared to the control
